In article PMC8000974, “Tumor Activated Cell Penetrating Peptides to Selectively Deliver Immune Modulatory Drugs” (Pharmaceutics, 2021):

How the values were obtained:
B16F10 melanoma tumors [1] = experiment: In vivo murine therapy experiments; design: species or system mice; conditions: for Tumor control (tumor volume) vs control untreated: day 5 and day 9, 10 tumors per group
Method: Female six-week-old C57Bl6 albino mice were injected with 50,000 B16F10 melanoma cells subcutaneously in both thighs using a 1:1 mixture of PBS:Matrigel. The tumors were palpable five days after implant at which point treatment was initiated. Due to the rapid growth of B16F10 tumor in mice, dosing began when tumors reached an average size of 30 ± 13 mm^3. Animals were divided into four treatment groups: control, intratumoral (i.t.) resiquimod (30 nmoles per tumor), i.t. ACPP-resiquimod (30 nmoles per tumor), or i.v. ACPP-resiquimod (60 nmoles per mouse). Mice were given free drug or ACPP conjugated on day 5 and day 9. Each treatment group had five mice with 10 tumors. Tumor volumes were measured bi-weekly and mice weighed weekly. Mice were sacrificed when the tumor size reached 1500 mm^3.

B16F10 melanoma tumors [2] = experiment: Tissue drug concentration (LC-MS/MS) after i.v. ACPP-resiquimod; assay type: in vivo; conditions: B16F10 tumor bearing C57Bl6 albino mice, 30 nmoles ACPP-resiquimod i.v., 6 h post injection, free resiquimod by LC-MS/MS
Method: Female six-week-old C57Bl6 albino mice were injected with 50,000 B16F10 melanoma cells subcutaneously into both thighs using a 1:1 PBS:Matrigel. Mice were i.v. injected with 30 nmoles of ACPP-resiquimod in 100 µL sterile water and 6 h post injection mice were sacrificed. Tumor and adjacent muscle tissue were excised, weighed, and flash frozen in liquid N2. A mixture of 44 mL H2O, 44 mL acetonitrile, and 2 mL glacial acetic acid was used as the diluent. Nine times w/v of diluent was added to the frozen tissue. Tissues were dissociated on ice with a Sonic dismemberator Model 500 (Fisher Scientific) tissue probe homogenizer using 5 s pulse of 20% amplitude four to five times. The samples were spun down to obtain clear supernatant. For muscle tissue, addition passage through a 0.22 µm Nylon filter (Costar Spin X; purchased from Sigma, St Louis, MI, USA) was used to obtain clear supernatant. A fixed volume of tissue supernatant from each sample was injected on the LC-MS/MS (Agilent 1100 LC with MSD Trap XCT, Santa Clara, CA, USA). Each sample was run in duplicate on the LC-MS/MS to determine reproducibility of integrated ion current for each sample. […] Concentration of unknown samples were then calculated (Graphpad PRISM).

B16F10 melanoma cells = experiment: Cell culture Cy5 imaging of peptide uptake; assay type: cell-based; conditions: murine B16 cells, 1 μM peptide in 1% FBS, 2 h at room temperature then 2 h in media, fixed
Method: (§1) Murine B16F10 melanoma and LL2 Lewis lung carcinoma cell lines were purchased from ATCC. MC38 colon adenocarcinoma cell line was purchased from Kerafast (Boston, MA, USA). Cell lines were grown in Dulbecco’s modified eagle’s medium (DMEM) + 10% fetal bovine serum (FBS) media. All cell lines were maintained at low passage and routinely tested for mycoplasma. For Cy5 imaging, cells were resuspended and incubated with Cy5 labeled r9 or ACPP at 1 μM in 1% FBS. The cells were incubated for 2 h under rotation and covered to be protected from light at room temperature. Cells were then spun down (5 min at 2000 rpm) and resuspended in cell media for an additional 2 h. The cells were then fixed with 4% paraformaldehyde in phosphate buffered saline (PBS), washed twice with PBS and incubated with 4′,6-diamidino-2-phenylindole (DAPI) stain (1:500). Finally, the cells were washed with PBS and mounted on slides using Fluoromount mounting media (Sigma, St Louis, MI, USA). Cells were imaged using a Keyence microscope with a 100× oil objective and high-resolution settings.

[3] = tested on: LL2 Lewis lung carcinoma cells; experiment: Cell culture Cy5 imaging of peptide uptake; assay type: cell-based; conditions: murine LL2 cells, 1 μM peptide in 1% FBS, 2 h at room temperature then 2 h in media, fixed
Method: as §1

[4] = tested on: MC38 colon adenocarcinoma cells; experiment: Cell culture Cy5 imaging of peptide uptake; assay type: cell-based; conditions: murine MC38 cells, 1 μM peptide in 1% FBS, 2 h at room temperature then 2 h in media, fixed
Method: as §1

Row | Molecule | Antitumor efficacy compared with free resiquimod (B16F10 melanoma tumors [1]; ACPP-resiquimod i.t. or i.v. vs i.t. free resiquimod, total drug per animal constant) | Tumor control (tumor volume) vs control untreated (B16F10 melanoma tumors [1]; i.t. 30 nmoles per tumor) | Tumor control (tumor volume) vs control untreated (B16F10 melanoma tumors [1]; i.v. 60 nmoles per mouse) | Resiquimod drug concentration in tumor tissue (B16F10 melanoma tumors [2]) | Resiquimod drug concentration in peri-tumoral muscle tissue (B16F10 melanoma tumors [2]; negative value from calibration background noise) | Cell uptake (Cy5 fluorescence microscopy) (B16F10 melanoma cells) | Cell uptake (Cy5 fluorescence microscopy) [3] | Cell uptake (Cy5 fluorescence microscopy) [4] | Mouse survival, dose response (B16F10 melanoma tumors [1]; i.t. injection, 30 nmoles compared to 10 nmoles, Log-rank (Mantel–Cox) test)
1 | cyclo(RGD)fc-MC-HN-peg8-e9-oPLGC(Me)AG-r9-c-(MC-VC-PABC-resiquimod-CONH2 [ACPP-resiquimod] | as efficacious as free resiquimod | improved tumor control | improved tumor control | 1142.3 ± 111.7 nM | -5.8 ± 3.5 nM | – | – | – | –
2 | CCN1C(=CC=CC=CC2=[N+](CCCCCC(=O)NCCN3C(=O)CC(SC[C@@H](NC(=O)[C@@H](CCCNC(=N)N)NC(=O)[C@@H](CCCNC(=N)N)NC(=O)[C@@H](CCCNC(=N)N)NC(=O)[C@@H](CCCNC(=N)N)NC(=O)[C@@H](CCCNC(=N)N)NC(=O)[C@@H](CCCNC(=N)N)NC(=O)[C@@H](CCCNC(=N)N)NC(=O)[C@@H](CCCNC(=N)N)NC(=O)[C@H](N)CCCNC(=N)N)C(N)=O)C3=O)c3ccc(S(=O)(=O)[O-])cc3C2(C)C)C(C)(C)c2cc(S(=O)(=O)O)ccc21 (stereo partly shown) [Cy5 labeled r9] | – | – | – | – | – | readily taken up | readily taken up | readily taken up | –
3 | CCOCc1nc2c(N)nc3ccccc3c2n1CC(C)(C)O [resiquimod, Resiquimod, reference compound] | – | improved tumor control | – | – | – | – | – | – | statistically improved survival
